By Ki is commonly meant a dissociation constant, usually derived from enzyme kinetics or from competition with a known ligand. The low end stands for tighter binding, the high end for weaker binding. As a reminder, the Km is the concentration of substrate that gives half-maximal velocity.

The results in this text go back to article PMC8110907, “Arabidopsis Carboxylesterase 20 Binds Strigolactone and Increases Branches and Tillers When Ectopically Expressed in Arabidopsis and Maize” (Frontiers in Plant Science, 2021).

Series [1] deals with T1, AtCXE20 (carboxylesterase 20) (Arabidopsis thaliana, UniProt Q9LVB8).
T1 construct: gene CXE20; recombinant AtCXE20 with 20-amino acid N-terminal peptide fusion including a 6-histidine tag, expressed in E. coli
T1 sequence (Q9LVB8 1-327): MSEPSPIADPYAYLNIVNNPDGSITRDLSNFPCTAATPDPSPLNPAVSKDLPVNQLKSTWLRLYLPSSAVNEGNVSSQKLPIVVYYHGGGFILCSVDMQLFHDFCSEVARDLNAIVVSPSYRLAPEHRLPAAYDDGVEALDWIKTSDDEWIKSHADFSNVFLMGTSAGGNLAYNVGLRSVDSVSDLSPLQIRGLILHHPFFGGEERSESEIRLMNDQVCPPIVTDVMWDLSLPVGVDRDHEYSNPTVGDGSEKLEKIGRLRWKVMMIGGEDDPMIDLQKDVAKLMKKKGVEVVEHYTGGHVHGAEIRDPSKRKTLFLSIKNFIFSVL
In words: esterase inhibition at […] (p-nitrophenyl acetate substrate); also decreased intrinsic fluorescence at […]. Format: biochemical.

Series [2] concerns the target T1, AtCXE20 (carboxylesterase 20). In words: esterase assay with p-nitrophenyl acetate, Michaelis-Menten kinetics. Format: biochemical.
Substrate in the series “purified protein”: CC(=O)Oc1ccc([N+](=O)[O-])cc1
Put plainly: purified protein. Format: biochemical, Arabidopsis thaliana. To be noted: catalytic triad S166, H302, D272 (homology model).

Take `CC1=CC(O/C=C2/C(=O)OC3c4ccccc4CC23)OC1=O` (racemic) [GR24, rac-GR24]: in series [1], the “esterase inhibition at 20 μM (p-nitrophenyl acetate substrate); also decreased i” value is on record as “substantial inhibition was observed with the synthetic SL racemic mixture GR24”.
The molecule `CC1=C[C@H](O/C=C2/C(=O)O[C@@H]3C4=C(CCCC4(C)C)C[C@H]23)OC1=O` [5-DS, 5-deoxystrigol] yielded an inhibitory constant (Ki) in series [2] of 5 µM.

B1: AtCXE20 (carboxylesterase 20) (Arabidopsis thaliana) (protein)
chain: T1 sequence (Q9LVB8 1-327)
notes: recombinant AtCXE20 with 20-amino acid N-terminal peptide fusion including a 6-histidine tag, expressed in E. coli
For the molecule B1, the Km in “purified protein” turned out to be 251 ± 26 µM.
